Experimental data published in ChEMBL document CHEMBL1208688, “Synthesis and biological evaluation of novel benzodioxinocarbazoles (BDCZs) as potential anticancer agents” (Bioorg Med Chem Lett, 2010).
Active and inactive are the calls of the source. The rule behind the calls is not given here.

Columns and labels:
[1] = target: T1, DNA topoisomerase 1 (Homo sapiens) (UniProt P11387); test: Inhibition of topoisomerase 1
T1 sequence (whole entry): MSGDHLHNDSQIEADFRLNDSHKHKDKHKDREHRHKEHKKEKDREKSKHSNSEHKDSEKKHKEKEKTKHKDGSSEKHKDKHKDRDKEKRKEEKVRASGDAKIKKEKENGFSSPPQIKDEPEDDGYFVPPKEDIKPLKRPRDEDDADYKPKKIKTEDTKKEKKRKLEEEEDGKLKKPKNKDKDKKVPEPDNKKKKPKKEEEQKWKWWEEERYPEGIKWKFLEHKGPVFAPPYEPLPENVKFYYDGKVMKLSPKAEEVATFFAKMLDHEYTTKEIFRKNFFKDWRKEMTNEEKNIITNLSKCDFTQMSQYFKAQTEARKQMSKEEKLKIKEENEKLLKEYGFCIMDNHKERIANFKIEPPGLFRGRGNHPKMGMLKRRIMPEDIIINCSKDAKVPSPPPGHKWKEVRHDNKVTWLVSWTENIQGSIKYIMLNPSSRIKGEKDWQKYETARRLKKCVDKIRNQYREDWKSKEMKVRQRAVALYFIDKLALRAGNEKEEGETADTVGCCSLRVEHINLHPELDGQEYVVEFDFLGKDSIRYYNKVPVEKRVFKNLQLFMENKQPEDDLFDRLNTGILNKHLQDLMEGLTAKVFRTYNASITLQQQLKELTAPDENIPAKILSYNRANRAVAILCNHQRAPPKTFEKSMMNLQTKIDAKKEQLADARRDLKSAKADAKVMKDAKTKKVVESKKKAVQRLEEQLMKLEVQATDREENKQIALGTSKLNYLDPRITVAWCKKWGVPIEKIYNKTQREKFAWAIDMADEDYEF

[2] = target: DNA topoisomerase 2-alpha (Homo sapiens) (UniProt P11388); test: Inhibition of topoisomerase 2
Chain of DNA topoisomerase 2-alpha (Homo sapiens) (P11388 whole entry): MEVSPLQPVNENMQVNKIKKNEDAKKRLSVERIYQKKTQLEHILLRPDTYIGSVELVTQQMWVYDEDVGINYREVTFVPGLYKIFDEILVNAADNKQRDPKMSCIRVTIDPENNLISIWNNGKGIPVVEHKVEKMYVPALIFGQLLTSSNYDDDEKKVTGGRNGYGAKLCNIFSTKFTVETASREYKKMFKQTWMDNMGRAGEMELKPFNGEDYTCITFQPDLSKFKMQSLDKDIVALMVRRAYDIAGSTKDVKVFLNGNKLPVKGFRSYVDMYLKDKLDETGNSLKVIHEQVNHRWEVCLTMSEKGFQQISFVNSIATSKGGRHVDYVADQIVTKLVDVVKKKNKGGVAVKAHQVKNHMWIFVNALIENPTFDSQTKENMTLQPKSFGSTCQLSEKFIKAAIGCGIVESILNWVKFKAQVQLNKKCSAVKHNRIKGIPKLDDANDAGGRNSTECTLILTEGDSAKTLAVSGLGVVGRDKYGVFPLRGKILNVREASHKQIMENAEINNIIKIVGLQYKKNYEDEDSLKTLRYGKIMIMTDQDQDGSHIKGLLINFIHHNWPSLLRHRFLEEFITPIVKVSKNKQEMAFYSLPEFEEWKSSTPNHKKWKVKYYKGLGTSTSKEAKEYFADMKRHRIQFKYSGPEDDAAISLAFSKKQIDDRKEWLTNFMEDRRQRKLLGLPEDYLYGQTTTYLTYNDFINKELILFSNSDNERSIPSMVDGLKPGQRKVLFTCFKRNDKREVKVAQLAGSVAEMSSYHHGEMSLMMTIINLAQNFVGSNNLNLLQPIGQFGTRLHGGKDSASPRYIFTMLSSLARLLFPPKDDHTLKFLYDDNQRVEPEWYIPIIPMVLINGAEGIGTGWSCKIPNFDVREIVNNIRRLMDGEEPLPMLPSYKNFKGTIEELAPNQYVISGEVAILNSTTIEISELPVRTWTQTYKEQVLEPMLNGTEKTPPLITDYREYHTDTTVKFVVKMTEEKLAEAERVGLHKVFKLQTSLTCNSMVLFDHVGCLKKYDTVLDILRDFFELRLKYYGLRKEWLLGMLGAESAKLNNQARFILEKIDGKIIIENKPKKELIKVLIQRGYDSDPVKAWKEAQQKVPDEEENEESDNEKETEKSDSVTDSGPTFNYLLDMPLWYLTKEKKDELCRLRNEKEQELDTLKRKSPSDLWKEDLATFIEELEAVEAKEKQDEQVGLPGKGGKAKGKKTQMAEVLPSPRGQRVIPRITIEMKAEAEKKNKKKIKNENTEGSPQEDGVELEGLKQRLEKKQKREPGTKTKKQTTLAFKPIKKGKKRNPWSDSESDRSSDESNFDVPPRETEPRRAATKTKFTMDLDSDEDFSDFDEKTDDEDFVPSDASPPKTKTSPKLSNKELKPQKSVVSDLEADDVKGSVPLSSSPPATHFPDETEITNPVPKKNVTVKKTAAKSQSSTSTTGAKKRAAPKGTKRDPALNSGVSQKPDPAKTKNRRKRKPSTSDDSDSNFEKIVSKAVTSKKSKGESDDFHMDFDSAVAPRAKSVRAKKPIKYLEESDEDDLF

CN(C)CCn1c(=O)c2c3oc4ccccc4oc3c3[nH]c4ccc(O)cc4c3c2c1=O
inhibition [1]: inactive | inhibition [2]: inactive
